Assay results from ChEMBL document CHEMBL1134448, “Design, synthesis, and proposed active site binding analysis of monocyclic 2-azetidinone inhibitors of prostate specific antigen” (J Med Chem, 2001).

molecular target: Prostate-specific antigen (KLK3) (Homo sapiens) (UniProt P07288); experiment: Inhibition of Prostate specific antigen PSA (Serine Protease)
Sequence (P07288 whole entry, looked up): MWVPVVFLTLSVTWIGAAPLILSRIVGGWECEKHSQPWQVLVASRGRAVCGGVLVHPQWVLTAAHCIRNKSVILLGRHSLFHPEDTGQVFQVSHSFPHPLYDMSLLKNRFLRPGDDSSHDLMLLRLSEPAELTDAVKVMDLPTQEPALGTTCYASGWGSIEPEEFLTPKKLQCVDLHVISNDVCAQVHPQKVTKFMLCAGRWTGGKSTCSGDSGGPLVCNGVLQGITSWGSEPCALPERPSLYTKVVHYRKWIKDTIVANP

SMILES | IC50 [µM]
O=C(O)c1ccc(COC(=O)c2cccc(CC(=O)N3C(=O)[C@@H](Cc4ccccc4)[C@H]3C(=O)OCc3ccc(C(=O)O)cc3)c2)cc1 | 5.84
O=C(O)c1ccc(COC(=O)[C@@H]2[C@H](Cc3ccccc3)C(=O)N2C(=O)Cc2cccc(C(=O)OCc3ccccc3)c2)cc1 | 8.98
O=C(O)c1ccc(COC(=O)[C@@H]2[C@H](Cc3ccc(O)cc3)C(=O)N2C(=O)Cc2cccc(C(=O)OCc3ccccc3)c2)cc1 | 3.5

These reach a lower IC50. Values come first.

IC50 [µM] | SMILES
1.43 | O=C(OCc1ccccc1)c1cccc(CC(=O)N2C(=O)[C@@H](Cc3ccccc3)[C@H]2C(=O)OCc2ccccc2)c1
0.348 | O=C(OCc1ccccc1)c1cccc(CC(=O)N2C(=O)[C@@H](Cc3ccc(O)cc3)[C@H]2C(=O)OCc2ccccc2)c1 (stereo in doubt; 16)
0.226 | O=C(OCc1ccccc1)c1cccc(CC(=O)N2C(=O)[C@@H](Cc3ccc(O)cc3)[C@H]2C(=O)OCc2ccccc2)c1 (stereo in doubt; (3S,4S)-18)
